How the values were obtained:
[1] = biological target: T1, recombinant human prolyl oligopeptidase (PREP) (Homo sapiens, UniProt P48147); assay: Selective assay, protease inhibition (PREP); assay type: biochemical; conditions: substrate Z-Gly-Pro-AMC
T1 sequence (P48147 1-710): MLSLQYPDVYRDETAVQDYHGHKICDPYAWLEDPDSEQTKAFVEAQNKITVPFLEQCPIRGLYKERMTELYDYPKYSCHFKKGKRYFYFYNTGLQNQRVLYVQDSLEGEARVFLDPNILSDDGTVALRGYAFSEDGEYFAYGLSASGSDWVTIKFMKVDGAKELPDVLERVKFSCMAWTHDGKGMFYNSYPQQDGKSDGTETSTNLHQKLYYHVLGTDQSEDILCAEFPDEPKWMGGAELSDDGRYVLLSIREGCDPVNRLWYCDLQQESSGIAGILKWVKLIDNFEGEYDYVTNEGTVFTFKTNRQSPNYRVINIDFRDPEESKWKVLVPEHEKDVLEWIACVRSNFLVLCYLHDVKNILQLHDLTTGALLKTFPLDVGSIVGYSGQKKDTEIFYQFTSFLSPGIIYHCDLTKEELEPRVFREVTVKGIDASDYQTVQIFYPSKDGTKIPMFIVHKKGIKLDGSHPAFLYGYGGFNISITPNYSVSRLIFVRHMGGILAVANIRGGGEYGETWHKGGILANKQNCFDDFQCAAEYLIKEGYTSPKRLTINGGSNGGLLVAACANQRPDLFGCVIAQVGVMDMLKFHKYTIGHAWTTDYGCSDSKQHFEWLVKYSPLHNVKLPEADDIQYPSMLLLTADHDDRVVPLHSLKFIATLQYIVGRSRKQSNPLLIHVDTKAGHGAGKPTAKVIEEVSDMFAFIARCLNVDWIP
Description: (§1) The specificity of the synthesized compounds against recombinant human dipeptidyl peptidase IV (DPPIV), fibroblast activation protein (FAP), or prolyl oligopeptidase (PREP) was expressed by their half-maximal inhibitory concentration (IC50) against the proteases.
(§2) 1) The synthesized compound was dissolved in DMSO to a final concentration of 100 mM.
c) For PREP assay: The test compound was diluted to a 1 mM solution using a 140 mM NaCl buffer at pH 8.0.
(§3) 2) The prepared 1 mM test compound solution was serially diluted (1:10) into a row of a 96-well plate using the corresponding buffer mentioned above.
(§4) 3) The substrate was prepared as a DMSO stock solution (FAP and PREP: 2.5 mM Z-Gly-Pro-AMC (VWR, Cat. No. I-1145.0050BA) in DMSO; DPPIV: 100 mM Gly-Pro-AMC (VWR, Cat. No. 100042-646) in DMSO), and subsequently the substrate stock solution was diluted 20-fold using the corresponding buffer mentioned above.
(§5) 4) The enzyme was diluted into the appropriate assay buffer. The final concentrations of DPPIV, FAP, and PREP were […], respectively. To each required well in columns 2-10, 180 μL was added separately. Column 1 (A, B, C) was prepared with 200 μL of the appropriate assay buffer as a control. Column 1 (D, E, F, G, H) was prepared using 20 μL of appropriate assay buffer and 180 μL of enzyme as an inhibitor-free control. […]
(§6) 7) Fluorescence was measured at λex: 380, λem: 460. […]

[2] = biological target: recombinant human dipeptidyl peptidase IV (DPPIV) (Homo sapiens, UniProt P27487); assay: Selective assay, protease inhibition (DPPIV); assay type: biochemical; conditions: substrate Gly-Pro-AMC; read-out: pIC50 (DPPIV) (converted)
Sequence of recombinant human dipeptidyl peptidase IV (DPPIV) (P27487 whole entry): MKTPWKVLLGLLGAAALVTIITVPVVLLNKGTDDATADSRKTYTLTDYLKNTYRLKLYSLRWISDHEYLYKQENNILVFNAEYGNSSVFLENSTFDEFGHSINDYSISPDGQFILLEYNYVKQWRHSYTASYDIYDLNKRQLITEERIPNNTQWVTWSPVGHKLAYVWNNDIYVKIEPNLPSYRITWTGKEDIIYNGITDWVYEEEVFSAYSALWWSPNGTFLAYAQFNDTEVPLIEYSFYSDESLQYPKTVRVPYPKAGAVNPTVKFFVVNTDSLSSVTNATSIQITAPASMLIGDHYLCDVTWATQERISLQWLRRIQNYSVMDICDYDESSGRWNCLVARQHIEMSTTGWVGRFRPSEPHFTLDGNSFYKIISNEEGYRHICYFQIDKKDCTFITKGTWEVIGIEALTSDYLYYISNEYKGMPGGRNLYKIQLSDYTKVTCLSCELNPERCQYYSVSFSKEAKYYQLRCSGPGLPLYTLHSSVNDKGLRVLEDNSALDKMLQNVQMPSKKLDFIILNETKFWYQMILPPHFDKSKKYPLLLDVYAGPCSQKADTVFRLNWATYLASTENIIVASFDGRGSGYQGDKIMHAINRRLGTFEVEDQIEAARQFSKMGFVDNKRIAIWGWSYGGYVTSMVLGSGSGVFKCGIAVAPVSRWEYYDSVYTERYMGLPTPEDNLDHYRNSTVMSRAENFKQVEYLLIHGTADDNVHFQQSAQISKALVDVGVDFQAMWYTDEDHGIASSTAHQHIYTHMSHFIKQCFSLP
Description: as §1, §2
b) For DPPIV assay: The test compound was diluted to a 1 mM solution using a buffer of 25 mM Tris, 250 mM NaCl at pH 7.5.
as §3, §4
as §5, with “control.” for “control. Column 1 (D, E, F, G, H) was prepared using 20 μL of appropriate assay buffer and 180 μL of enzyme as an inhibitor-free control.”
as §6

For `N#C[C@@H]1CC(F)(F)CN1C(=O)CNC(=O)c1cccc2c1CCN(C(=O)CCC(=O)NCCNC(=O)CCC(C(=O)O)N1CCN(CC(=O)O)CCN(CC(=O)O)CCN(CC(=O)O)CC1)C2` (some centres unmarked) [JHH5], the IC50 [1] was > 1 µM and the IC50 [2] was > 1 µM.

From US20260226049A1, “NITROGEN-CONTAINING HETEROCYCLIC COMPOUND, PREPARATION METHOD THEREFOR, AND USE THEREOF” (BIVISION PHARMACEUTICALS, INC, priority 2023, published 2026)
